Like-named read-outs stand apart in the source and are kept apart here.
Legend:
[1] = test system: pNL4-3-derived HIV reporter particles; type: cell-based; settings: particles made in presence of 1 μM inhibitor; supernatants tested on target cells
[2] = test system: pNL4-3-derived HIV reporter particles; type: cell-based
[3] = test system: VSV-G-enveloped particles; type: cell-based, HIV

| Molecule | percentage of blue cells [1] | effect on ability of HIV reporter particle to transfer β-lactamase to target cells [2] | percentage of blue cells [2] | blocking of transfer of β-lactamase [2] | blue cells in presence versus absence of NH4Cl [3] | percentage of blue cells [3] | blocking of transfer of β-lactamase to target cells [2] | blocking of transfer of β-lactamase to target cells [3] |
| --- | --- | --- | --- | --- | --- | --- | --- | --- |
| CCc1cc(NCc2nc3c(Cl)ccc(Cl)c3o2)c(O)nc1C [L-697661] | ˜10-20% blue cells | had no effect | 10-20% blue cells | – | – | – | – | – |
| Cl.N [NH4Cl] | – | – | ˜10% blue cells | did not block transfer of β-lactamase | significantly fewer blue cells | ˜10% blue cells | – | – |
| enfuvirtide | – | – | – | – | – | – | blocked the transfer of β-lactamase to target cells | neither agent blocked transfer of β-lactamase |
